The results in this text go back to patent US10759826B2, “15β-substituted estrone derivatives as selective inhibitors of 17β-hydroxysteroid-dehydrogenases, method of preparation and use thereof” (USTAV ORGANICKE CHEMIE A BIOCHEMIE AV CR, V.V.I., priority 2016, dated 2020).

One series concerns T47D cells. As to the kind of experiment: E1 induced proliferation of T47D cells, 7 days, cell count. To be noted: FIG. 1. The format is cell-based, human.
For a further series, the system named is CEM. As to the kind of experiment: MTT cytotoxicity assay, CEM. The format is cell-based. To be noted: Homo sapiens, CCRF-CEM. The text has this:
(§1) Compounds 5, 6, 7, 9, 14 and 15 were used for evaluation of antitumor activity. MTT cytotoxicity assay was used in vitro on cell lines derived from normal tissues and from tumors. Specifically, these were the K562 line (human myeloid leukemia), K562-Tax (human myeloid leukemia resistant to taxol and overexpressing PgP protein for multidrug resistance), CEM (T-lymphoblastic leukemia), CEM-DNR bulk (T-lymphoblastic leukemia resistant doxorubicin, lacking the expression of the target gene for inhibitors of topoisomerase II alpha), A549 line (human lung adenocarcinoma), HCT116p53 wt (human colon cancer), HCT116p53−/− (human colon cancer, mutant p53), U2OS line of human osteosarcoma and two fibroblast lines MRC5 and BJ as examples of non-tumor cells. Expression characteristics, profiles of susceptibility to classical antitumor drugs and methodology of the MTT cytotoxicity assay were repeatedly published (e.g. Noskova et al. Neoplasma 2002, 49, 418; S̆arek et. al. J. Med. Chem. 2003, 46, 25, 5402).
(In general: Tetrazolium dyes change colour on reduction, which living cells bring about.)

Another series deals with CEM-DNR-bulk. As to the kind of experiment: MTT cytotoxicity assay, CEM-DNR-bulk. The format is cell-based.
Excerpt: as §1

For a further series, the system named is K562. Put plainly: MTT cytotoxicity assay, K562. To be noted: Homo sapiens. The class given is cell-based.
Excerpt: as §1

The subject of another series is K562-Tax. Put plainly: MTT cytotoxicity assay, K562-Tax. The class given is cell-based. To be noted: Homo sapiens.
Excerpt: as §1

Another series deals with A549. As to the kind of experiment: MTT cytotoxicity assay, A549. To be noted: Homo sapiens. The format is cell-based.
Excerpt: as §1

In a further series the test system is HCT116p53 wt. As to the kind of experiment: MTT cytotoxicity assay, HCT116p53 wt. The class given is cell-based. To be noted: Homo sapiens.
Excerpt: as §1

The test system of a further series is HCT116p53-/-. As to the kind of experiment: MTT cytotoxicity assay, HCT116p53-/-. The format is cell-based. To be noted: Homo sapiens.
Excerpt: as §1

In a further series the test system is U2OS. Put plainly: MTT cytotoxicity assay, U2OS. The format is cell-based. To be noted: Homo sapiens.
Excerpt: as §1

Another series deals with BJ. As to the kind of experiment: MTT cytotoxicity assay, BJ fibroblasts. The class given is cell-based. To be noted: Homo sapiens, non-tumor fibroblasts.
Excerpt: as §1

The subject of another series is MRCS. Put plainly: MTT cytotoxicity assay, MRC5 fibroblasts. The class given is cell-based. To be noted: Homo sapiens, Fibroblast, non-tumor fibroblasts.
Excerpt: as §1

The subject of another series is 17βHSD. As to the kind of experiment: Inhibition of 17βHSD in vivo, E2 in plasma of mice. To be noted: 20 mg/kg daily, orally; for E2 in plasma, individual mice: 20 mg/kg. Further details: species or system mice (NMRI).
A further series has as its system embryo. Put plainly: Toxicity in the CAM model, dead and surviving embryos. The format is in vivo, White Leghorn eggs. To be noted: 50 μmol·l^−1, after 6 days of treatment, FIG. 2C. As for the experimental part:
The toxicity after 6 days of the treatment was characterized by the number of dead embryos, eventual visible macroscopic abnormalities were evaluated as well.

Series [1] has as its target T1, human 17βHSD1 (Homo sapiens, UniProt P14061).
T1 sequence (P14061 1-328): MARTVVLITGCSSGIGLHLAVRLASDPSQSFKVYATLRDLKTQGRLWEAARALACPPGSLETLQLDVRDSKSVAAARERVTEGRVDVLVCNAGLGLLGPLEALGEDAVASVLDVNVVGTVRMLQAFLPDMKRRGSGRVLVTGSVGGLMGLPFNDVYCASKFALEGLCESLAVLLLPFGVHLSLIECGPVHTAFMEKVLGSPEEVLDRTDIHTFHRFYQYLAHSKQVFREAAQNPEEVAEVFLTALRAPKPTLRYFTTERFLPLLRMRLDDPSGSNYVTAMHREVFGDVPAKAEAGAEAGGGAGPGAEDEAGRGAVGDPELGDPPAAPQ
As to the kind of experiment: 17βHSD inhibition in CHO cells transfected with human 17βHSD1, E1 in supernatant. To be noted: 10 μmol·l^−1. The format is cell-based. Further details: expressed in transfected cells. As for the experimental part:
(§2) For this experiment, non-cytotoxic concentrations of estrone derivative (10 μmol·l^−1) were used. E1 levels were determined by an immuno-enzymatic assay.

Series [2] concerns the target T1, human 17βHSD1. As to the kind of experiment: 17βHSD inhibition in MCF-7 cells transfected with human 17βHSD1, E1 in supernatant. To be noted: 10 μmol·l^−1. More on the design: expressed in transfected cells; host or cells: MCF-7. The format is cell-based. As for the experimental part: as §2

The term melting point denotes the temperature of the solid-liquid transition. As usually defined, the IC50 is the midpoint of a concentration-inhibition curve. A lower IC50 goes with greater potency.

Structures are written as SMILES. Several values for one entry are separate records, joined by “and”; a condition that tells them apart may be missing. Equal entries are not always repeated. Entries after “also recorded” stand apart in the source; their conditions may differ.

Excerpt for T47D cells: Two days prior to testing of compounds, growth medium was changed to medium without phenol red, supplemented with 2 mmol^·l^−1 Glutamax and 4% FBS depleted of lipophilic components (including the endogenous estrogenic substances) (Hyclone, GE Healthcare Life Sciences, USA). Two days after the medium replacement, the cells were harvested, counted and resuspended in a medium. Cells were dispensed with liquid dispenser Multidrop (Thermo Fisher Scientific, Waltham, USA), to the cell culture treated, 12-well plates (Corning Inc., NY, USA) at 100 000 cells/well in 1 mL of total media volume. Compounds diluted in the medium were added 24 h later and cells were incubated for 7 more days with or without 1 μmol^·l^−1 E1. Growth medium was changed during the experiment on day 3, and freshly diluted compounds were added to cells again. After 7 days of cell cultivation with compounds, cells were harvested and counted. Cell number was normalized and 100% was attributed to cells cultivated in the presence of 1 μmol^·l^−1 E1 and 0% to the cells cultivated without any added compound.

In turn, `CCOc1ccc(CC[C@@H]2CC(=O)[C@@]3(C)CC[C@@H]4c5ccc(O)cc5CC[C@H]4[C@H]23)cc1` [Compound 12, 15β-(4-Ethoxyphenethyl)-3-hydroxy-estra-1,3,5(10)-trien-17-one] had a melting point of 173 °C.

In the case of `COc1ccc(CC[C@@H]2CC(=O)[C@@]3(C)CC[C@@H]4c5ccc(O)cc5CC[C@H]4[C@H]23)cc1` [Compound 9, 3-Hydroxy-15β-(4-methoxyphenethyl)-estra-1,3,5 (10)-trien-17-one], in the series on T47D cells (1 μmol·l^−1, without E1, 7 days), the “effect on T47D proliferation, compound alone” value is “weakly pro-proliferative”. Also, the “effect on E1-induced proliferation of T47D cells” value with T47D cells (incubated together with 0.1 nmol·l^−1 E1, 7 days) was “reverses the pro-proliferative activity of E1; also recorded: blocks E1-induced proliferation”. Also, the IC50 in the series with CEM worked out at 21.4 µM; in the series with CEM-DNR-bulk, 22.1 µM; in the series on K562, 27.7 µM; in the series on K562-Tax it was 9.12 µM; in the series on A549, 41 µM; with HCT116p53 wt, 29.4 µM. In addition, the IC50 in the series with HCT116p53-/- is 35.7 µM; in the series on U2OS, 45.3 µM; in the series on BJ, over 50 µM; in the series with MRCS, over 50 µM. Moreover, the “E2 in plasma, mean value ± σ” value with 17βHSD (7 days) amounted to 5693 ± 1034 pg/mL; in the series on 17βHSD (14 days), 3874 ± 1253 pg/mL. Besides, the “E2 in plasma, individual mice” value is 4927 pg/mL and 4357 pg/mL and 6020 pg/mL and 7379 pg/mL and 5857 pg/mL and 5617 pg/mL in the series on 17βHSD (7 days); 6020 pg/mL and 2668 pg/mL and 2657 pg/mL and 3566 pg/mL and 4312 pg/mL and 4025 pg/mL with 17βHSD (14 days). The “toxicity, dead/alive eggs” value in the series on embryo is “No specific toxicity”. Also, the figures for the “E1 in supernatant, CHO” value on human 17βHSD1 [1] (8 hr.) and at human 17βHSD1 [1] (24 hr.) were 1171 pg/mL and 739 pg/mL, respectively. In addition, the “E1 in supernatant, MCF-7” value stood at 1300 pg/mL at human 17βHSD1 [2] (8 hr.) and 1182 pg/mL on human 17βHSD1 [2] (24 hr.).
